# Test results as given in patent US4877881A, “Process of preparing pyrazoles, isoxazoles and analogs thereof having activity as 5-lipoxygenase inhibitors” (Warner-Lambert Company, priority 1988, dated 1989).
# Columns and labels:
# cyclooxygenase = molecular target: T1, cyclooxygenase (Rattus norvegicus, UniProt Q63921); experiment: ARBC Whole Cell Cyclooxygenase Assay in RBL-1 cells (PGF2α RIA); type: cell-based; conditions: RBL-1 intact cell cyclooxygenase; A23187 5 μM
# T1 construct: RBL-1 intact cell cyclooxygenase IC50 values; endogenous in cells; host or cells: RBL-1 rat basophilic leukemia cells (American Type Culture Collection)
# T1 sequence (Q63921 27-602): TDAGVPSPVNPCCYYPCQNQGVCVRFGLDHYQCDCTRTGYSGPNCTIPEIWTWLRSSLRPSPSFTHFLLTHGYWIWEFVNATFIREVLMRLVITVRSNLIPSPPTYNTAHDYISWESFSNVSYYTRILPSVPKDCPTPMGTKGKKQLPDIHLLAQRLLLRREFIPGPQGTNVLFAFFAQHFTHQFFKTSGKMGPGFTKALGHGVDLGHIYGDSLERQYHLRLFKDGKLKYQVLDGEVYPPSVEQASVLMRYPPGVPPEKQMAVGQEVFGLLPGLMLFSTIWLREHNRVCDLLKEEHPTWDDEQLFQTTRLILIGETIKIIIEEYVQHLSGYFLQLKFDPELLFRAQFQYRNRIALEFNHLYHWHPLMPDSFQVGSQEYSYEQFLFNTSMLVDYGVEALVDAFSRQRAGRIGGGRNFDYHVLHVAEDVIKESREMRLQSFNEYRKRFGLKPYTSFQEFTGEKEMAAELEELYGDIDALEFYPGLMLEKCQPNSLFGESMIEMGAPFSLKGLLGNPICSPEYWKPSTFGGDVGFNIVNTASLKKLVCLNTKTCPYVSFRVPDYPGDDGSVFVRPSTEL
# Description: (§1) ARBL/ARBC Whole Cell 5-Lipoxygenase and Cyclooxygenase Assays
# (§2) The rat basophilic leukemia cell line (RBL-1) was obtained from the American Type Culture Collection (Rockville, Md.).
# (§3) Radioimmuno assay (RIA) kits of LTB4 and PGF2α were obtained from Amersham (Arlington Heights, Ill.) and Seragen (Boston, Mass.) respectively.
# (§4) All tissue culture media were obtained from GIBO (Gran Island, N.Y.).
# (§5) RBL-1 cells were grown in culture (suspension) in Eagle's minimum essential medium supplemented with 12% fetal bovine serum and 1:100 antibiotic-antimycotic mixture at 37° C. in an incubator supplied with air-5% carbon dioxide. Cells were harvested by centrifugation. They were washed with cold phosphate buffered saline pH 7.4 (PBS; NaCl, 7.1 g; Na2 HOP4, 1.15 g; KH2 PO4, 0.2 g; and KCl, 0.2 g/L). […] Calcium ionophore A23187 (5 μM) was added and cells were incubated for seven minutes at 37° C. The reaction was stopped by chilling the tubes in ice for ten minutes. Cells were separated by centrifugation and the supernatant was stored at -20°. Aliquots (100 μl) were analyzed for LTB4 and PGF2α using radioimmuno assay kits as provided by the supplier.
# 5-lipoxygenase = molecular target: T2, 5-lipoxygenase (Rattus norvegicus, UniProt P12527); experiment: ARBL Whole Cell 5-Lipoxygenase Assay in RBL-1 cells (LTB4 RIA); type: cell-based; conditions: RBL-1 intact cell 5-lipoxygenase; A23187 5 μM
# T2 construct: ARBL/ARBC Whole Cell 5-Lipoxygenase and Cyclooxygenase Assays; endogenous in cells; host or cells: RBL-1 rat basophilic leukemia cells (American Type Culture Collection)
# T2 sequence (P12527 1-673): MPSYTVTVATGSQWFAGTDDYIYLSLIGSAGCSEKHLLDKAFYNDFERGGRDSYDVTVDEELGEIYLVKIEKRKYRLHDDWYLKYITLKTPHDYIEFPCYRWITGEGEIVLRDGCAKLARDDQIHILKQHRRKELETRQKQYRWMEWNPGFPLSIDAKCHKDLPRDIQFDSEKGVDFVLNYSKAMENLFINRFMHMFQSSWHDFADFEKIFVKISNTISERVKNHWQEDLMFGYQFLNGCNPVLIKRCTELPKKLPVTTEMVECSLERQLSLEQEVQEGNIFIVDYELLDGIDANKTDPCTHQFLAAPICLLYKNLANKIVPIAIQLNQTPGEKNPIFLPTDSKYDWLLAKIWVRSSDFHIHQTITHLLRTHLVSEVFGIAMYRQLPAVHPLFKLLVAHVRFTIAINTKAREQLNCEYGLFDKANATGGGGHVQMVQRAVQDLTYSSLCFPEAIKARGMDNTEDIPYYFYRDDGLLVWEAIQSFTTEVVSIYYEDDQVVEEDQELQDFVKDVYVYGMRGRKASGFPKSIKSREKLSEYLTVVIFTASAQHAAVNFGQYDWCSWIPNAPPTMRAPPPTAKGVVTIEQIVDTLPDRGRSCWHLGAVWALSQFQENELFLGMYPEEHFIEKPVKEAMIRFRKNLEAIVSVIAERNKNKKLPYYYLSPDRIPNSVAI
# Description: as §1, §2, §3, §4, §5
SMILES,IC50 (cyclooxygenase),IC50 (5-lipoxygenase)
"COC(=O)C(=Cc1cc(Br)c(O)c(Br)c1)c1cc(C)no1 [Example 44, 5-[α-Carbomethoxy-β-(4'-hydroxy-3',5'-dibromophenyl)ethenyl]-3-methylisoxazole]",5.2 µM,12 µM
"COC(=O)Cn1nc(C)cc1C=Cc1cc(C(C)(C)C)c(O)c(C(C)(C)C)c1 [Example 10G-2, 5-[β-(4'-hydroxy-3',5'-di-t-butylphenyl)ethenyl]-3-methyl-1H-pyrazole-1-acetic acid, methyl ester]",> 30 µM,4.1 µM
"COc1cc(C=Cc2cc(-c3ccccc3)no2)ccc1O [Example 32E, 5-[β-(4'-Hydroxy-3'-methoxyphenyl)ethenyl]-3-phenyl-isoxazole]",2.8 µM,4.5 µM
"COC(=O)C(=Cc1cc(Br)c(O)c(OC)c1)c1cc(C)no1 [Example 46A, 5-[α-Carbomethoxy-β-(3'-methoxy-4'-hydroxy-5'-bromophenyl)ethenyl]-3-methylisoxazole]",12 µM,> 30 µM
"COc1cc(C=Cc2cc(C)nn2CC(=O)O)cc(OC)c1O [Example 10M, 5-[β-(4'-Hydroxy-3',5'-dimethoxyphenyl)ethenyl]-3-methyl-1H-pyrazole-1-acetic acid]",> 30 µM,> 30 µM
"COC(=O)Cn1nc(C=Cc2ccc(O)c(OC)c2)cc1C [Example 10J, 3-[β-(4'-Hydroxy-3'-methoxyphenyl)ethenyl]-5-methyl-1H-pyrazole-1-acetic acid, methyl ester]",30 µM,> 10 µM
"COc1cc(C=Cc2cc(C)n(CC(=O)O)n2)cc(OC)c1O [Example 10N, 3-[β-(4'-hydroxy-3',5'-dimethoxyphenyl)ethenyl]-5-methyl-1H-pyrazole-1-acetic acid]",> 30 µM,> 20 µM
"Cc1cc(C(=Cc2cc(C)c(O)c(C)c2)C(=O)O)on1 [Example 52, 5-[α-Carboxy-β-(4'-hydroxy-3',5'-dimethylphenyl)ethenyl]-3-methylisoxazole]",> 20 µM,> 20 µM
"COC(=O)C(=Cc1cc(Cl)c(O)c(Cl)c1)c1cc(C)no1 [Example 41, 5-[α-Carbomethoxy-β-(4'-hydroxy-3,5-dichlorophenyl)ethenyl]-3-methylisoxazole]",5 µM,> 30 µM
"CCOC(=O)Cn1nc(C)cc1/C=C/c1cc(OC)c(O)c(OC)c1 [Example 10D, (E)-5-[β-(4'-Hydroxy-3',5'-dimethoxyphenyl)ethenyl]3-methyl-1H-pyrazole-1-acetic acid, ethyl ester]",> 30 µM,0.3 µM
"COc1cccc(C=Cc2cc(C)no2)c1O [Example 32F, 5-[β-(2'-Hydroxy-3'-methoxyphenyl)ethenyl]-3-methylisoxazole]",30 µM,12 µM
"COc1cc(C=Cc2cc(CCO)on2)ccc1O [Example 36A, 3-[β-(4'-Hydroxy-3'-methoxyphenyl)ethenyl]-5-(2'-hydroxyethyl)isoxazole]",,21.5 µM
"COC(=O)Cn1nc(C=Cc2cc(C(C)(C)C)c(O)c(C(C)(C)C)c2)cc1C [Example 10G-1, 3-[β-(4'-Hydroxy-3',5'-di-t-butylphenyl)ethenyl]-5-methyl-1H-pyrazole-1-acetic acid, methyl ester]",> 30 µM,4.5 µM
"Cc1cc(C(=Cc2cc(C(C)(C)C)c(O)c(C(C)(C)C)c2)C(=O)O)on1 [Example 51, 5-[α-Carboxy-β-(4'-hydroxy-3',5'-bis(1,1-dimethylethyl)phenyl)ethenyl]-3-methylisoxazole]",2.5 µM,20 µM
"COC(=O)C(=Cc1cc(C)c(O)c(C)c1)c1cc(C)no1 [Example 43, 5-[α-Carbomethoxy-β-(4'-hydroxy-3',5'-dimethylphenyl)ethenyl]-3-methylisoxazole]",2.2 µM,17 µM
"COc1cc(C=Cc2cc(-c3ccccc3)no2)cc(OC)c1O [Example 32D, 5-[β(4'-Hydroxy-3',5'-dimethoxyphenyl)ethenyl]-3-phenylisoxazole]",5.4 µM,< 1 µM
"Cc1cc(C=Cc2cc(Cl)cc(Cl)c2O)on1 [Example 32J, 5-[β-(2'-Hydroxy-3',5'-dichlorophenyl)ethenyl]-3-methylisoxazole]",> 30 µM,4.7 µM
"COc1cc(C=Cc2cc(C)nn2CC(=O)O)ccc1O [Example 10L, 5-[β-(4'-Hydroxy-3'-methoxyphenyl)ethenyl]-3-methyl-1H-pyrazole-1-acetic acid]",,> 20 µM
"COc1cc(C=Cc2cc(C(F)(F)F)[nH]n2)ccc1O [Example 10A, 3-[β-(4'-Hydroxy-3'-methoxyphenyl)ethenyl]-5-trifluoromethylpyrazole]",4.5 µM,3.8 µM
"COC(=O)Cn1nc(C)cc1C=Cc1ccc(O)c(OC)c1 [Example 10I, 5-[β-(4'-Hydroxy-3'-methoxyphenyl)ethenyl]-3-methyl-1H-pyrazole-1-acetic acid methyl ester]",> 25 µM,> 10 µM
"COC(=O)C(=Cc1cc(OC)c(O)c(OC)c1)c1cc(C)no1 [Example 40, 5-[β-Carbomethoxy-β-(4'-hydroxy-3',5'-dimethoxyphenyl)ethenyl]-3-methylisoxazole]",> 25 µM,> 10 µM
"COc1cc(C=Cc2cc(C)n(CC(=O)O)n2)ccc1O [Example 10K, 3-[β-(4'-Hydroxy-3'-methoxyphenyl)ethenyl]-5-methyl-1H-pyrazole-1-acetic acid]",,> 20 µM
"Cc1cc(C=Cc2cc(C(C)(C)C)c(O)c(C(C)(C)C)c2)nn1CC(=O)O [Example 10Q, 3-[β-(4'-Hydroxy-3',5'-di-t-butylphenyl)ethenyl]-5-methyl-1H-pyrazole-1-acetic acid]",> 30 µM,> 30 µM
"COc1cc(C=Cc2cc(C)[nH]n2)ccc1OC(C)=O [Example 37, 3-[β-(4'-Acetoxy-3'-methoxyphenyl)ethenyl]-5-methylpyrazole]",,3.5 µM
"Cc1cc(C=Cc2cc(C(C)(C)C)c(O)c(C(C)(C)C)c2)n(CC(=O)O)n1 [Example 10P, 5-[β-(4'-Hydroxy-3',5'-di-t-butylphenyl)ethenyl]-3-methyl-1H-pyrazole-1-acetic acid]",> 30 µM,12 µM
"COC(=O)Cn1nc(C=Cc2cc(OC)c(O)c(OC)c2)cc1C [Example 10H, 3-[β-(4'-Hydroxy-3',5'-dimethoxyphenyl)ethenyl]-5-methyl-1H-pyrazole-1-acetic acid, methyl ester]",> 30 µM,9.5 µM
